In patent US20240279278A1, “NMU RECEPTOR 2 AGONISTS” (Boehringer Ingelheim International GmbH, priority 2023, published 2024):
pEC50: −log10 of the molar value. Starred links: 1 amine or outer side, 2 acyl side, 3 side chain; linkers in the order of their positions; H or OH if unused. Non-standard residues stand in square brackets, D forms with d. Residues, ends and D or L forms follow the SMILES beside them. *: point of attachment. Pipz(1-CH2CO,4-CH2CH2NH) = O=C(CN1CCN(CCN[*:1])CC1)[*:2]; C18 diacid = O=C(O)CCCCCCCCCCCCCCCCC(=O)*; γGlu = O=C(O)[C@H](CCC(=O)[*:2])N[*:1]; 3Pal = N[C@@H](Cc1cccnc1)C(=O)O; 4Pal = N[C@@H](Cc1ccncc1)C(=O)O; NMeL = CN[C@@H](CC(C)C)C(=O)O; NMeA = CN[C@@H](C)C(=O)O; Nle = CCCC[C@H](N)C(=O)O; Sar = CNCC(=O)O

Experiments:
Assay type in all cases: cell-based
[1] = molecular target: T1, human NMUR2 receptor (Homo sapiens, UniProt Q9GZQ4); assay: IP1 Gq HTRF assay, activation of human NMUR2 in human plasma; set-up: expressed in transfected cells; host or cells: CHO-K1; details: CHO-K1 cells expressing human NMUR2, 100% human plasma; read-out: EC50 (hNMUR2) human plasma
T1 sequence (Q9GZQ4 whole entry): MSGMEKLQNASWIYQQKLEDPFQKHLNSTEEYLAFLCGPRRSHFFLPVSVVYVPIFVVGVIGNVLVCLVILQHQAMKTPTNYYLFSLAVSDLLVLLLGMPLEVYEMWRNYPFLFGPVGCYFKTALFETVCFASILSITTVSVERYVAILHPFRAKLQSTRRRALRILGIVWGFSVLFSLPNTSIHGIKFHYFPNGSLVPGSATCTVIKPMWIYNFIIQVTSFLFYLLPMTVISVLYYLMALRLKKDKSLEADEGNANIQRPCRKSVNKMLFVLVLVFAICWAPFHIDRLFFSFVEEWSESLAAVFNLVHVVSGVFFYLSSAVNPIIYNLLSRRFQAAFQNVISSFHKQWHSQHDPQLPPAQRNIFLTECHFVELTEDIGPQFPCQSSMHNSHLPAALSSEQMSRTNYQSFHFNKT
Summary of the method: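 CHO-K1 cells stably expressing human NMUR2 exposed to peptide agonists (8-point dose-response) in 100% human plasma with 50 mM LiCl, 1% DMSO, for 1 h at 37° C. IP1 accumulation read by HTRF competition (665/620 nm ratio). EC50 from 4-parameter sigmoidal fit.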

[2] = molecular target: T2, human NMUR1 receptor (Homo sapiens, UniProt Q9HB89); assay: IP1 Gq HTRF assay, activation of human NMUR1 in buffer; details: CHO-K1 cells expressing human NMUR1, stimulation buffer with 0.1% BSA; read-out: EC50 (hNMUR1) buffer
T2 construct: expressed in transfected cells; host or cells: CHO-K1
T2 sequence (Q9HB89 1-426): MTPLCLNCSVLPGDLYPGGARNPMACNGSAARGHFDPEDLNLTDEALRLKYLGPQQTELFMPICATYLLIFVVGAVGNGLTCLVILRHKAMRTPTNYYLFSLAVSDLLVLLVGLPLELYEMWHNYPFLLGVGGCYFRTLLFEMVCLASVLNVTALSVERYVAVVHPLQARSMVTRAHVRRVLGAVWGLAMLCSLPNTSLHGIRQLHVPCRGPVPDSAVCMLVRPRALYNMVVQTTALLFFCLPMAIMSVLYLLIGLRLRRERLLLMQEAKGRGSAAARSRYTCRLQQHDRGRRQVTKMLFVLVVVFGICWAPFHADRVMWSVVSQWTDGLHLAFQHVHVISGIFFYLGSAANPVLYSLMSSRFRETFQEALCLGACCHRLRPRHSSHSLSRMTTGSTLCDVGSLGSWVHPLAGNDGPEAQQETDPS
Summary of the method: (§1)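 CHO-K1 cells stably expressing human NMUR1 or NMUR2, seeded 24 h before assay, stimulated with peptide agonists (8-point dose-response, 1% DMSO final) in HEPES/HBSS buffer with 50 mM LiCl and 0.1% BSA, pH 7.4, 1 h at 37 °C. IP1 accumulation read by HTRF competition (665/620 nm); EC50 from 4-parameter sigmoidal fit.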

[3] = molecular target: T1, human NMUR2 receptor; assay: IP1 Gq HTRF assay, activation of human NMUR2 in buffer; set-up: expressed in transfected cells; host or cells: CHO-K1; details: CHO-K1 cells expressing human NMUR2, stimulation buffer with 0.1% BSA; read-out: EC50 (hNMUR2) buffer
Summary of the method: as §1

| Structure (SMILES) | pEC50 [1] | pEC50 [2] | pEC50 [3] |
| --- | --- | --- | --- |
| CCCC[C@H](NC(=O)[C@H](CC(C)C)N(C)C(=O)[C@H](Cc1ccccc1)NC(=O)[C@H](Cc1ccc(O)cc1)NC(=O)CN1CCN(CCNC(=O)CN(C)C(=O)CN(C)C(=O)CN(C)C(=O)CN(C)C(=O)CN(C)C(=O)CN(C)C(=O)CN(C)C(=O)CN(C)C(=O)CN(C)C(=O)CN(C)C(=O)CN(C)C(=O)CN(C)C(=O)CN(C)C(=O)CN(C)C(=O)CN(C)C(=O)CC[C@H](NC(=O)CC[C@H](NC(=O)CC[C@H](NC(=O)CCCCCCCCCCCCCCCCC(=O)O)C(=O)O)C(=O)O)C(=O)O)CC1)C(=O)N[C@@H](Cc1cccnc1)C(=O)N(C)[C@@H](C)C(=O)N[C@@H](CCCNC(=N)N)C(=O)NCC(N)=O [Compound 57, C18DA-gGlu3-Sar15-AEPipAc-Tyr-Phe-NMeLeu-Nle-3Pal-NMeAla-Arg-Gly-NH2] ({C18 diacid-γGlu-γGlu-γGlu}-[Sar][Sar][Sar][Sar][Sar][Sar][Sar][Sar][Sar][Sar][Sar][Sar][Sar][Sar][Sar][Pipz(1-CH2CO,4-CH2CH2NH)]YF[NMeL][Nle][3Pal][NMeA]RG-NH2) | 6.29 | < 6.00 | 6.96 |
| CCCC[C@H](NC(=O)[C@H](CC(C)C)N(C)C(=O)[C@H](Cc1ccccc1)NC(=O)[C@H](Cc1ccc(O)cc1)NC(=O)CN1CCN(CCNC(=O)CN(C)C(=O)CN(C)C(=O)CN(C)C(=O)CN(C)C(=O)CN(C)C(=O)CN(C)C(=O)CN(C)C(=O)CN(C)C(=O)CN(C)C(=O)CN(C)C(=O)CN(C)C(=O)CN(C)C(=O)CN(C)C(=O)CN(C)C(=O)CN(C)C(=O)CC[C@H](NC(=O)CC[C@H](NC(=O)CC[C@H](NC(=O)CCCCCCCCCCCCCCCCC(=O)O)C(=O)O)C(=O)O)C(=O)O)CC1)C(=O)N[C@@H](Cc1ccncc1)C(=O)N(C)[C@@H](C)C(=O)N[C@@H](CCCNC(=N)N)C(=O)NCC(N)=O [Compound 58, C18DA-gGlu3-Sar15-AEPipAc-Tyr-Phe-NMeLeu-Nle-4Pal-NMeAla-Arg-Gly-NH2] ({C18 diacid-γGlu-γGlu-γGlu}-[Sar][Sar][Sar][Sar][Sar][Sar][Sar][Sar][Sar][Sar][Sar][Sar][Sar][Sar][Sar][Pipz(1-CH2CO,4-CH2CH2NH)]YF[NMeL][Nle][4Pal][NMeA]RG-NH2) | 6.15 | < 6.00 | 6.85 |
| CCCC[C@H](NC(=O)[C@H](CC(C)C)N(C)C(=O)[C@H](Cc1ccccc1)NC(=O)[C@H](Cc1ccc(O)cc1)NC(=O)CN1CCN(CCNC(=O)CN(C)C(=O)CN(C)C(=O)CN(C)C(=O)CN(C)C(=O)CN(C)C(=O)CN(C)C(=O)CN(C)C(=O)CN(C)C(=O)CN(C)C(=O)CN(C)C(=O)CN(C)C(=O)CN(C)C(=O)CC[C@H](NC(=O)CC[C@H](NC(=O)CC[C@H](NC(=O)CCCCCCCCCCCCCCCCCCC(=O)O)C(=O)O)C(=O)O)C(=O)O)CC1)C(=O)N[C@@H](CCN)C(=O)N(C)[C@@H](C)C(=O)N[C@@H](CCCNC(=N)N)C(=O)NCC(N)=O [Compound 59, C20DA-gGlu3-Sar12-AEPipAc-Tyr-Phe-NMeLeu-Nle-Dbu-NMeAla-Arg-Gly-NH2] | 7.92 | < 6.00 | 8.30 |
| CCCC[C@H](NC(=O)[C@H](CC(C)C)N(C)C(=O)[C@H](Cc1ccccc1)NC(=O)[C@H](Cc1ccc(O)cc1)NC(=O)CN1CCN(CCNC(=O)CN(C)C(=O)CN(C)C(=O)CN(C)C(=O)CN(C)C(=O)CN(C)C(=O)CN(C)C(=O)CN(C)C(=O)CN(C)C(=O)CN(C)C(=O)CC[C@H](NC(=O)CC[C@H](NC(=O)CC[C@H](NC(=O)CCCCCCCCCCCCCCCCCCC(=O)O)C(=O)O)C(=O)O)C(=O)O)CC1)C(=O)N[C@@H](CCN)C(=O)N1CCC[C@H]1C(=O)N[C@@H](CCCNC(=N)N)C(=O)NCC(N)=O [Compound 60, C20DA-gGlu3-Sar9-AEPipAc-Tyr-Phe-NMeLeu-Nle-Dbu-Pro-Arg-Gly-NH2] (HELM PEPTIDE1{[O=C(O)CCCCCCCCCCCCCCCCCCC(=O)[*:2]].[gGlu].[gGlu].[gGlu].[Sar].[Sar].[Sar].[Sar].[Sar].[Sar].[Sar].[Sar].[Sar].[O=C(CN1CCN(CCN[*:1])CC1)[*:2]].Y.F.[meL].[Nle].[Dab].P.R.G.[am]}$$$$V2.0) | 7.86 | 6.27 | 8.40 |
